Source: US20250098651A1, “A NON-HUMAN MAMMAL COMPRISING IN ITS GENOME AT LEAST TWO HUMAN LEUKOCYTE ANTIGEN (HLA) CLASS I ALLELES, METHODS OF MAKING SUCH MAMMAL AND USES THEREOF” (Max-Delbrueck-Centrum für Molekulare Medizin in der …, priority 2022, published 2025)

T1: TRRAP S722F peptide on HLA-A*02:01 (human)
T1 peptide: KLVFGSVFL

T2: TRRAP (wild-type S722) peptide on HLA-A*02:01 (human)
T2 peptide: KLVFGSVSL


Columns and labels:
CD8^+ T cells [1] = experiment: Peptide immunization of ABab.I mice, intracellular IFN-γ staining of CD8+ T cells; format: in vivo, mouse; conditions: for CD8^+ T cells produced IFN-γ: ABab.I mice, peripheral blood restimulated in vitro seven days post-injection; for mice responded: out of 6-7 mice/antigen
Experimental: A 200 μl injection suspension containing 100 μg of short peptides in PBS, 100 μl of incomplete Freund's adjuvant, and 50 μg CpG oligonucleotides were injected subcutaneously on both lateral sides of hind legs. 10- to 20-week-old young ABabDII or ABab.I mice (6-7 mice/group) were immunized with a 4-week interval between prime-boosts. […] As standard controls, ABabDII^1 and ABab.I mice were immunized with 100 μg of MAGE-A1278 […] […] 7-10 days after every boost injection, peripheral blood cells from immunized mice were ACK-lysed and cultured with 1 μM respective specific or unspecific peptide in the presence of protein transport inhibitor for 5-6 hours. Post-cell fixation, cells were intracellularly stained for IFN-γ, surface stained for CD3, CD8 markers, and analyzed by flow cytometry.
We analyzed ABab.I mice for antigen-specific CD8^+ T cell responses against described model antigens (FIG. 19A) using peptide immunization (FIG. 20). […] The MAGE-A1 epitope, […] The unspecific peptide used in in vitro restimulations was a NY-ESO epitope, […] (SEQ ID NO: 180).
Procedure: young mice were peptide-immunized (minimum twice) with intervals of at least 4-weeks between injections. Seven days post-booster injections, PBMCs from multi-HLA mice were stimulated in vitro with either the same peptides used for immunization (right), or unspecific peptides (left), or CD3/CD28 beads (middle, positive control). Intracellular flow cytometry staining measured the amount of IFN-γ cytokine released by the CD8^+ T cells after reacting to their respective epitopes. By flow cytometry, CD8^+ T cells were in vitro measured for CD3, CD8, and intracellularly IFN-γ expression. Dot plots in the figure depict CD8^+ IFN-γ^+ T cells (gated on CD3^+ lymphocytes). As an unspecific peptide, NY-ESO peptide ([…]) was used (as a negative control) only for in vitro stimulations.

A375 cells = experiment: Endogenous processing assay, co-culture with A375 cells, IFN-γ; format: cell-based, Homo sapiens; conditions: concluded from TCR co-culture with TRRAP+ cell lines
Text: FIGS. 4A-4F show the generation and characterization of TRRAP S722F TCRs in ABabDII mice. FIG. 4A depicts the TCR discovery pipeline with the immunization schedule as used in an illustrative example. […] Controls with wild-type S722 peptide or without (w/o) peptide. One representative flow cytometry plot out of three responder mice is given. […] IFN-γ levels measured after overnight co-culture of PBMCs (1×10^5) either with A375 cells (mutant-S722F^+, NY-ESO^+) or with SK-Mel-37 (wild-type-S722^+, NY-ESO^+). The TCR-ESO recognizes the NY-ESO157-165 epitope. Bar graph represents mean±SD (n=2). One representation out of three co-culture experiments is given.
Transduced T cells were co-cultured with peptide-titrated T2 (TAP^−/−) cells to ensure TCR interaction and its affinity to S722F. […] NY-ESO157-165, the HLA-A2 epitope is expressed on melanoma cells A375 and SK-Mel-37.

CD8^+ T cells [2] = experiment: Peptide immunization of ABabDII mice, CD8+ T cell IFN-γ response; format: in vivo, mouse
Experimental: A 200 μl injection suspension containing 100 μg of short peptides in PBS, 100 μl of incomplete Freund's adjuvant, and 50 μg CpG oligonucleotides were injected subcutaneously on both lateral sides of hind legs. 10- to 20-week-old young ABabDII or ABab.I mice (6-7 mice/group) were immunized with a 4-week interval between prime-boosts. Similar peptide mixtures were prepared and injected for further boosting regimens of all peptides. As standard controls, ABabDII^1 and ABab.I mice were immunized with 100 μg of MAGE-A1278 […] (SEQ ID NO: 26) peptide with a similar injection mixture. 7-10 days after every boost injection, peripheral blood cells from immunized mice were ACK-lysed and cultured with 1 μM respective specific or unspecific peptide in the presence of protein transport inhibitor for 5-6 hours. Post-cell fixation, cells were intracellularly stained for IFN-γ, surface stained for CD3, CD8 markers, and analyzed by flow cytometry.
For TCR candidate discovery, young ABabDII mice (n=7, 12-16 weeks) were immunized with mutant 9-mer peptides (FIG. 3B, […], SEQ ID NO: 30) at 4-week intervals. CD8^+ T cell responses were analyzed in blood one week after every boost using intracellular staining, followed by culturing the T cells and IFN-γ capture assay to sort for peptide-specific T cells (FIG. 4A). […]

[3] = molecular target: T1, TRRAP S722F peptide on HLA-A*02:01; experiment: cytokine release
[4] = molecular target: T2, TRRAP (wild-type S722) peptide on …; experiment: cytokine release

Molecule	CD8^+ T cells produced IFN-γ (CD8^+ T cells [1])	mice responded (CD8^+ T cells [1])	also measured
APRGPHGGAASGL (NY- ESO peptide; NY- ESO epitope) [unspecific NY-ESO peptide used for in vitro restimulation]	No T cell responses were observed		
KLVFGSVEL [mutant epitope-S722F, TRRAP S722F mutant nonamer, HLA-A2-restricted]			endogenous processing and presentation on HLA-A2 (A375 cells): not endogenously processed and presented on HLA-A2; T cells responding in the spleen after T cell culturing (CD8^+ T cells [2]; 10^−9 M peptide and IL-2 (20 IU/ml) for 10 days): about 17%; T cells responded in blood (CD8^+ T cells [2]; ABabDII mice, one-week post-4th injection (3rd boost)): about 0.8%
KMRMRRMRR	about 1.8%	1	
KVLEYVIKV	~1%	3	
QYDPVAALF	about 0.3%		
SAFRCFIVY	about 0.2%	3	
TPRVTGGGAM	About 1.4%		
VRIGHLYIL	about 0.23%	1	
VVGAVGVGK	About 6.9%	6	
TRRAP S722F TCR, dominant TCR Valpha17-Vbeta27 pair (TCR) alpha TRAV17-1 TRAJ58 CDR3: CATDAEETSGSRLTF beta TRBV27-1 TRBJ2-1 CDR3: CASSLAGIYNEQFF			binding result [3]: recognises; binding result [4]: no recognition
